“Also recorded” adds a separate entry of the source. Where a SMILES comes first, the peptide text is derived from it. [ ]: non-standard residue; d: D form. N(4-MeOBn)Gly = COc1ccc(CNCC(=O)O)cc1; NMeR = CN[C@@H](CCCNC(=N)N)C(=O)O; Gly(N-CH2CH2OH) = O=C(O)CNCCO; NMeS = CN[C@@H](CO)C(=O)O; Nlys = NCCCCNCC(=O)O
How the values were obtained:
[1] = Stability of the compounds in human plasma (UHPLC); format: in vitro ADME; settings: 37 °C, 30 min
Procedure: We tested the proteolytic stability of the obtained peptidomimetics by incubating them with human plasma at 37 °C for 30 min. The process was monitored by UHPLC. Using mass spectrometry, the proteolytic degradation sites were determined (Figure 1B). […] Apparently, the modifications made the modulators considerably less susceptible to the action of proteases present in the plasma.
The modulators were incubated with human serum (Merck, Darmstadt, Germany) at 37 °C for 30 min. The compounds were dissolved in water, and their final concentration was 200 μM. Every 5 min, samples were taken from the incubated solution, and the reaction was stopped with 6% trichloroacetic acid (TCA) added to the sample in a 1:1 (v/v) ratio. Next, the samples were centrifuged for 10 min at 4 °C and 14,000 rpm. The supernatant was subjected to HPLC and MS analyses. The progress of proteolytic degradation of modulators was monitored using a UHPLC chromatograph (Shimadzu, Tokyo, Japan) with a Kinetex analytical column 100 mm × 2.1 mm, 2.6 μm, 100 Å (Phenomenex, Torrance, CA, USA) with UV detection at a wavelength of 223 nm. The degree of degradation was estimated based on the area of the peaks corresponding to the starting materials. In order to identify peptide fragments resulting from degradation, analysis was performed using an Autoflex maX MALDI TOF mass spectrometer (Bruker, […]). All experiments were performed in at least three independent replicates.

human 20S proteasome = tested on: T1, human 20S proteasome; assay: h20S proteasome activity probed with FRET-type Dabcyl-EDANS substrate; format: biochemical; settings: for h20S stimulating capacity, Dabcyl-EDANS: 1.0-50 μM modulator
T1 construct: human proteasome isolated from erythrocytes; from tissue; host or cells: human erythrocytes
From the text: (§1) To assess the influence of substitutions increasing proteolytic stability on the modulators’ capacity to stimulate chymotrypsin-like, trypsin-like, and caspase-like activity of h20S, we used classic fluorogenic substrates: Suc-LLVY-AMC, Boc-LRR-AMC, and Z-LLE-AMC, respectively. To confirm the observed stimulating capacity, we also conducted assays using a FRET-type reporter peptide with a sequence consisting of 11 residues (Lys(Dabcyl)-[…]EDANS)-Gly).[27] As we checked, the activated 20S hydrolyzed this substrate after more than one residue (Lys, Gly, and Glu), which makes it a probe better reflecting the concerted action of the proteasome’s three peptidases. […] The discrepancy in the level of activation was mainly due to the greater sensitivity of the FRET substrate, as it is not digested, unlike the AMC-based probes, by the latent proteasome, which results in greater differences in fluorescence relative to the controls. […] The ability to affect individual peptidases of the proteasome in different ways is most likely related to the allosteric mechanism of action of the modulators. Binding at a site distant from the catalytic compartment may result in greater diversity in the pathways by which the signal reaches active sites and differential effects of that signal on each peptidase.
(§2) The effect of all synthesized peptidomimetics on the catalytic activity of the proteasome was tested using a human proteasome isolated from erythrocytes. Suc-LLVY-AMC, Boc-LRR-AMC, and Z-LLE-AMC fluorogenic substrates (Bachem, Bubendorf, Switzerland) were used for assessment of the chymotrypsin-, trypsin-, and caspase-like activities, respectively. A homemade FRET-type substrate Dabcyl-EDANS (Lys(Dabcyl)-[…]EDANS)-Gly)[26] was used as an additional probe. Stock solutions of the substrates and tested peptidomimetics were prepared in dimethyl sulfoxide (DMSO), ensuring that the final concentration of DMSO in all samples remained consistent at 2%. The small fluorogenic substrates were used at a final concentration of 100 μM, while Dabcyl-EDANS was prepared at a final concentration of 15 μM. Modulators were tested in concentrations ranging from 1.0 to 50 μM, with compounds containing TAT or 6R sequences tested at lower concentrations ranging from 0.5 to 10 μM. Activity tests were conducted in 96-well plates using 50 mM Tris/HCl, pH 8.0, as an assay buffer. The final concentration of h20S proteasome was adjusted to 0.002 mg/mL (2.8 nM). The fluorescence of released aminomethylcoumarin (AMC) was monitored at 460 nm (λex was 380 nm), while the hydrolysis of Dabcyl-EDANS was detected by measuring emission at 493 nm (λex was set at 335 nm). Fluorescence measurements were taken continuously every 2 min over a 60 min period at 37 °C using a Tecan Infinite M200Pro spectrofluorometer (Tecan Trading AG, Männedorf, Switzerland). All activity assays were performed in at least three independent replicates. The relative activity was calculated in relation to the catalytic activity of the vehicle (DMSO)-treated latent proteasome, which was regarded as 100%. Statistical analysis was performed using the one-way ANOVA followed by Tukey’s post-hoc test. P-value <0.05 was considered statistically significant.

[2] = tested on: T2, human 20S proteasome, ChT-L peptidase; assay: Chymotrypsin-like (ChT-L) activity of h20S probed with Suc-LLVY-AMC; format: biochemical; settings: 100 μM Suc-LLVY-AMC; for ChT-L stimulating capacity, Suc-LLVY-AMC: whole concentration range
T2 construct: human proteasome isolated from erythrocytes; from tissue; host or cells: human erythrocytes
Procedure: (§3) To assess the influence of substitutions increasing proteolytic stability on the modulators’ capacity to stimulate chymotrypsin-like, trypsin-like, and caspase-like activity of h20S, we used classic fluorogenic substrates: Suc-LLVY-AMC, Boc-LRR-AMC, and Z-LLE-AMC, respectively.
as §2, with “Modulators were tested in concentrations ranging from 1.0 to 50 μM, with compounds containing TAT or 6R sequences tested at lower concentrations ranging from 0.5 to 10 μM.” left out

[3] = tested on: T3, human 20S proteasome, T-L peptidase; assay: Trypsin-like (T-L) activity of h20S probed with Boc-LRR-AMC; format: biochemical; settings: 100 μM Boc-LRR-AMC
T3 construct: human proteasome isolated from erythrocytes; from tissue; host or cells: human erythrocytes
Procedure: as §3
as §2, with “Modulators were tested in concentrations ranging from 1.0 to 50 μM, with compounds containing TAT or 6R sequences tested at lower concentrations ranging from 0.5 to 10 μM.” left out

[4] = tested on: T4, human 20S proteasome, C-L peptidase; assay: Caspase-like (C-L) activity of h20S probed with Z-LLE-AMC; format: biochemical; settings: 100 μM Z-LLE-AMC
T4 construct: human proteasome isolated from erythrocytes; from tissue; host or cells: human erythrocytes
From the text: as §1, §2

[5] = PAMPA, blood–brain barrier mimic; format: in vitro ADME; settings: 500 μM, 37 °C, 22 h
From the text: In neurodegenerative diseases, proteins prone to aggregation accumulate in the neuronal cells. Therefore, a necessary feature of potential drugs is not only permeability across the cell membrane but also the ability to cross the blood-brain barrier (BBB). To preliminarily investigate this feature, we performed parallel artificial membrane permeation assays (PAMPA) including as positive controls propranolol and Tat47-57, known for their ability to penetrate the blood-brain barrier. Dopamine hydrobromide was included as a negative control. For comparison, we also tested compound 1a, which is devoid of a CPP sequence. […] The PAMPA was performed as previously described.[21] Briefly, a 2% solution of porcine brain lipid membrane (PBL; Avanti Polar Lipids Inc., Alabaster, AL, USA) in anhydrous dodecane was used as a mimic of the blood-brain barrier. Propranolol hydrochloride (Merck, Darmstadt, Germany) and Tat47-57 (synthesized in-house) served as positive controls, while dopamine hydrobromide (Merck, Darmstadt, Germany) was used as a negative control. Stock solutions of the tested compounds and controls were prepared at a concentration of 10 mM in deionized water and then diluted to 500 μM using 0.1 M PBS containing 5% DMSO. The donor-acceptor plate assembly was incubated at 37 °C while being shaken at 250 rpm for 22 h. Absorbance at 290 nm was measured for propranolol using an Infinite […] plate reader (Infinite […] plate reader, Tecan). For the other samples, fluorescence measurements were performed after the compounds were reacted with 0.02% fluorescamine. The rate of passive diffusion was calculated as the linear velocity of permeation (Pe). The data represent an average of three independent biological replicates.

proteolytic stability in human plasma [1] | ChT-L stimulating capacity, Suc-LLVY-AMC [2] | T-L stimulating capacity, Boc-LRR-AMC [3] | C-L stimulating capacity, Z-LLE-AMC [4] | stimulation of h20S activity, Dabcyl-EDANS probe (human 20S proteasome; 15 μM Dabcyl-EDANS, level reached vs latent proteasome) | h20S stimulating potency, Dabcyl-EDANS (human 20S proteasome; at the lowest concentrations) | stimulation of h20S activity, Suc-LLVY-AMC probe ([2]; level reached vs latent proteasome) | permeability across artificial BBB membrane, PAMPA [5] | remaining at 0.5 h ([1]; human, plasma, UHPLC, read-out: amount of compound remaining after incubation with human plasma) | Structure (SMILES) | h20S stimulating capacity, Dabcyl-EDANS (human 20S proteasome; 15 μM Dabcyl-EDANS)
most stable | least effective stimulants | weakest activators | weakest activators | – | – | – | – | – | COc1ccc(CN(CC(=O)N[C@@H](CCCNC(=N)N)C(=O)N[C@@H](CCCNC(=N)N)C(=O)N[C@@H](Cc2ccc(O)cc2)C(=O)N[C@@H](Cc2ccc(O)cc2)C(=O)N[C@@H](CO)C(=O)O)C(=O)[C@H](CC(=O)O)NC(=O)[C@H](CCCCN)NC(=O)[C@H](CO)NC(=O)CNC(=O)[C@@H](NC(=O)[C@H](Cc2ccccc2)NC(=O)CN(Cc2ccc(OC)cc2)C(=O)[C@@H](N)CCCCN)[C@@H](C)O)cc1 [2f] (H-K[N(4-MeOBn)Gly]FTGSKD[N(4-MeOBn)Gly]RRYYS-OH) | least effective stimulants
very stable | most effective h20S stimulators | – | – | – | – | – | – | – | C[C@@H](O)[C@H](NC(=O)[C@H](Cc1ccccc1)NC(=O)[C@H](Cc1ccc(O)cc1)NC(=O)CNCCCCN)C(=O)NCC(=O)N[C@@H](CO)C(=O)N[C@@H](CCCCN)C(=O)N[C@@H](CC(=O)O)C(=O)N[C@@H](Cc1ccc(O)cc1)C(=O)N[C@@H](CCCNC(=N)N)C(=O)N[C@@H](CCCNC(=N)N)C(=O)N[C@@H](Cc1ccc(O)cc1)C(=O)N[C@@H](Cc1ccc(O)cc1)C(=O)N[C@@H](CO)C(=O)O [compound 2a] (H-[Nlys]YFTGSKDYRRYYS-OH) | most effective h20S stimulators; also recorded: effective activator
– | – | – | – | 12 fold | even more potent than 1 | 8 fold | at the level of a negative control | – | C[C@@H](O)[C@H](NC(=O)[C@H](Cc1ccccc1)NC(=O)[C@H](Cc1ccc(O)cc1)NC(=O)CNCCCCN)C(=O)NCC(=O)N[C@@H](CO)C(=O)N[C@@H](CCCCN)C(=O)N[C@@H](CC(=O)O)C(=O)N[C@@H](Cc1c[nH]c2ccccc12)C(=O)N[C@@H](CCCNC(=N)N)C(=O)N[C@@H](CO)C(=O)N[C@@H](Cc1ccc(O)cc1)C(=O)N[C@@H](Cc1ccc(O)cc1)C(=O)N[C@@H](CO)C(=O)O [compound 1a] (H-[Nlys]YFTGSKDWRSYYS-OH) | did not lose their ability to effectively stimulate h20S
most stable | lower capacity of activating h20S | – | – | – | – | – | – | – | C[C@@H](O)[C@H](NC(=O)[C@H](Cc1ccccc1)NC(=O)[C@H](Cc1ccc(O)cc1)NC(=O)CNCCCCN)C(=O)NCC(=O)N[C@@H](CO)C(=O)N[C@@H](CCCCN)C(=O)N[C@@H](CC(=O)O)C(=O)N[C@@H](Cc1c[nH]c2ccccc12)C(=O)N[C@@H](CCCNC(=N)N)C(=O)N(CCO)CC(=O)N[C@@H](Cc1ccc(O)cc1)C(=O)N[C@@H](Cc1ccc(O)cc1)C(=O)N[C@@H](CO)C(=O)O [1c] (H-[Nlys]YFTGSKDWR[Gly(N-CH2CH2OH)]YYS-OH) | less strongly than 1
– | lower capacity of activating h20S | poor activator | moderate activator | – | – | – | – | < 30% | C[C@@H](O)[C@H](NC(=O)[C@H](Cc1ccccc1)NC(=O)[C@H](Cc1ccc(O)cc1)NC(=O)[C@@H](N)CCCCN)C(=O)NCC(=O)N[C@@H](CO)C(=O)N[C@@H](CCCCN)C(=O)N[C@@H](CC(=O)O)C(=O)N[C@@H](Cc1c[nH]c2ccccc12)C(=O)N(C)[C@@H](CCCNC(=N)N)C(=O)N(C)[C@@H](CO)C(=O)N[C@@H](Cc1ccc(O)cc1)C(=O)N[C@@H](Cc1ccc(O)cc1)C(=O)N[C@@H](CO)C(=O)O [compound 1d] (H-KYFTGSKDW[NMeR][NMeS]YYS-OH) | reached stimulation levels equal to those of the best activators; also recorded: less strongly than 1

— article PMC12035797, “Peptidomimetics Activating the Proteasome: A New Perspective for Parkinson’s Treatment” (Journal of Medicinal Chemistry, 2025)
